Experiments:
PIK3CA = PIK3CA (UniProt P42336); assay: PIK3-alpha Kinase Inhibition
PIK3CB = PIK3CB (UniProt P42338); assay: PIK3-beta Kinase Inhibition
PIK3CD = PIK3CD (UniProt O00329); assay: PIK3-delta Kinase Inhibition
PIK3CG = PIK3CG (UniProt P48736); assay: PIK3-gamma Kinase Inhibition
Sequence of PIK3CG (P48736 whole entry, looked up): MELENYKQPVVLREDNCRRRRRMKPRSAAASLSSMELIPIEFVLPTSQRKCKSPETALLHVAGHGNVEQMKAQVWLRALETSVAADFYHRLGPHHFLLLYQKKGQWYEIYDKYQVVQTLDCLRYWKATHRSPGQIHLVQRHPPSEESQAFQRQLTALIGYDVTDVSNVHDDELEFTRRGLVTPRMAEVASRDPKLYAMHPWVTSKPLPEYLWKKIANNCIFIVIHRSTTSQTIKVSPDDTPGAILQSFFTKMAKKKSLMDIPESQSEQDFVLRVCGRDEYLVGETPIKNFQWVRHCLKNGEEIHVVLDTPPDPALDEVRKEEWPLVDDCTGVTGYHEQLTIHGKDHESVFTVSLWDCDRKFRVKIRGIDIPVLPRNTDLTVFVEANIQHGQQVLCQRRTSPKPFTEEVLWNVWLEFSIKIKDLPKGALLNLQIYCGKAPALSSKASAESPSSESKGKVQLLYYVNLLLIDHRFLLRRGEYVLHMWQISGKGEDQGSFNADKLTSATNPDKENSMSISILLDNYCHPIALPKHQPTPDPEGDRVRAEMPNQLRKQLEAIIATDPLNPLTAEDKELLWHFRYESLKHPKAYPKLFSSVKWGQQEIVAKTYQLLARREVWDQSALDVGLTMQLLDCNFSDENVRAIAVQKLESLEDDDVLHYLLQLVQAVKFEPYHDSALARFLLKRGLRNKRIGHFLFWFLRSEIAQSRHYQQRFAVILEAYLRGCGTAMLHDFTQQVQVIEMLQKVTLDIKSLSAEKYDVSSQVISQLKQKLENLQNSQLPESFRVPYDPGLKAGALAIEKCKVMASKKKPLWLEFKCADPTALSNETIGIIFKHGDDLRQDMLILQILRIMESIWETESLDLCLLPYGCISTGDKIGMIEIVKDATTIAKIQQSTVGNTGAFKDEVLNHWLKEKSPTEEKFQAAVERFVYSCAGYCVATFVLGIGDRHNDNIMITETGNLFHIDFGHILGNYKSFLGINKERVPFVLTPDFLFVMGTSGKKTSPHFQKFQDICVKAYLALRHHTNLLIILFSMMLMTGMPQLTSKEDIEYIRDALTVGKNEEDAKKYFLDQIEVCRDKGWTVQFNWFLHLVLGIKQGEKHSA

Sequence of PIK3CA (P42336 whole entry, looked up): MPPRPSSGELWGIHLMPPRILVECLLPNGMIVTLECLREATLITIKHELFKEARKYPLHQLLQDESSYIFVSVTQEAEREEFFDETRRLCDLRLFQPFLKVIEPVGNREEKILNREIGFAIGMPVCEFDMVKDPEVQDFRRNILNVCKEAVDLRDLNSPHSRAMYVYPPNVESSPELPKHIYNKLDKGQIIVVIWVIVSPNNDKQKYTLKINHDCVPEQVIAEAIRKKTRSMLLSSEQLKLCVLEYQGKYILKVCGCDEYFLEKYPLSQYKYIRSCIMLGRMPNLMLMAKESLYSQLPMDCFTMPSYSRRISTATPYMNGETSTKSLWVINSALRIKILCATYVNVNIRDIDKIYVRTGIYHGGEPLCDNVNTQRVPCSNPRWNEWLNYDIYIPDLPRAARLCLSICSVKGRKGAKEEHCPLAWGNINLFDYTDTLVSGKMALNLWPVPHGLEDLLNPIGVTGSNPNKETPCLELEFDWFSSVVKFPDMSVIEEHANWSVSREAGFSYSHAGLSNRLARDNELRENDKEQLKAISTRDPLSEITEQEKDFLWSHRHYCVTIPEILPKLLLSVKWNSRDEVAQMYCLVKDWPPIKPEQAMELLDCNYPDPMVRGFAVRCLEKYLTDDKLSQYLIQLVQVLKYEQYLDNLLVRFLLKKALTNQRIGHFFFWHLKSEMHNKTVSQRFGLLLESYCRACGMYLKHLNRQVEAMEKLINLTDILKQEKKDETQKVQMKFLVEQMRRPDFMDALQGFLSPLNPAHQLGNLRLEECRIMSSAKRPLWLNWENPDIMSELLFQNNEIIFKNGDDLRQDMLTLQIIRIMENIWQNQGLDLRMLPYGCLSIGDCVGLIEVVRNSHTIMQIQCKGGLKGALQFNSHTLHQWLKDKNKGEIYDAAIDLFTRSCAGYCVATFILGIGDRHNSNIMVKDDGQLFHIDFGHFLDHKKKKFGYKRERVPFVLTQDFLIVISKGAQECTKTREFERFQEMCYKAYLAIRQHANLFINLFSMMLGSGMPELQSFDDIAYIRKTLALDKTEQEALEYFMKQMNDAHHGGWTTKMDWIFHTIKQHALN
Sequence of PIK3CB (P42338 whole entry, looked up): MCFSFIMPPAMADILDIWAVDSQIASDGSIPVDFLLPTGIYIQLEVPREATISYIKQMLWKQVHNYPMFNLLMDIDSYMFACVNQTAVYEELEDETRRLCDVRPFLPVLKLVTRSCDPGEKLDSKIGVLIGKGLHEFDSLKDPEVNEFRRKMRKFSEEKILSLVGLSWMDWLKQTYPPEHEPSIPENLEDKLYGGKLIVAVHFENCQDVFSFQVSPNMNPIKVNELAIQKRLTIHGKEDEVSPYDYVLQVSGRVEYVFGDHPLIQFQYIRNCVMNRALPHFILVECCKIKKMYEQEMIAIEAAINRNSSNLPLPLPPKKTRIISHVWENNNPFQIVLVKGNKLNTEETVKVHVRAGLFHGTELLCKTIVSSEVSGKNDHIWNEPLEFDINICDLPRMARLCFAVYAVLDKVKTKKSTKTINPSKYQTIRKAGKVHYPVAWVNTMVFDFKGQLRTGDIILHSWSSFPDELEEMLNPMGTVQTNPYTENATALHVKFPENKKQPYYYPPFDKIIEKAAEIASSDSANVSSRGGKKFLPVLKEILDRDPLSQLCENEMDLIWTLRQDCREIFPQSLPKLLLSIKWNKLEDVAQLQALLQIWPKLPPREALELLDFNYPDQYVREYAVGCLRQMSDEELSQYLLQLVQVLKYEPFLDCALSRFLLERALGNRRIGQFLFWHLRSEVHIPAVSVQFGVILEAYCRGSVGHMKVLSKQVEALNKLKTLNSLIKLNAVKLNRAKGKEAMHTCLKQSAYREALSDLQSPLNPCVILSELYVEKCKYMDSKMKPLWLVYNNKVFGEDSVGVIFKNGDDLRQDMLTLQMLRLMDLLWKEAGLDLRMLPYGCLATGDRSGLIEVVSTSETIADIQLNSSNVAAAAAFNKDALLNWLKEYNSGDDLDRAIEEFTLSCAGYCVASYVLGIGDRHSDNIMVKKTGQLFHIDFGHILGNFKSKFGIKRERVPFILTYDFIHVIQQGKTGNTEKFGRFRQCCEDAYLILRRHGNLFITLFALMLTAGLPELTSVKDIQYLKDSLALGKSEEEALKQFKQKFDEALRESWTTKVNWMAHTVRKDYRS
Sequence of PIK3CD (O00329 whole entry, looked up): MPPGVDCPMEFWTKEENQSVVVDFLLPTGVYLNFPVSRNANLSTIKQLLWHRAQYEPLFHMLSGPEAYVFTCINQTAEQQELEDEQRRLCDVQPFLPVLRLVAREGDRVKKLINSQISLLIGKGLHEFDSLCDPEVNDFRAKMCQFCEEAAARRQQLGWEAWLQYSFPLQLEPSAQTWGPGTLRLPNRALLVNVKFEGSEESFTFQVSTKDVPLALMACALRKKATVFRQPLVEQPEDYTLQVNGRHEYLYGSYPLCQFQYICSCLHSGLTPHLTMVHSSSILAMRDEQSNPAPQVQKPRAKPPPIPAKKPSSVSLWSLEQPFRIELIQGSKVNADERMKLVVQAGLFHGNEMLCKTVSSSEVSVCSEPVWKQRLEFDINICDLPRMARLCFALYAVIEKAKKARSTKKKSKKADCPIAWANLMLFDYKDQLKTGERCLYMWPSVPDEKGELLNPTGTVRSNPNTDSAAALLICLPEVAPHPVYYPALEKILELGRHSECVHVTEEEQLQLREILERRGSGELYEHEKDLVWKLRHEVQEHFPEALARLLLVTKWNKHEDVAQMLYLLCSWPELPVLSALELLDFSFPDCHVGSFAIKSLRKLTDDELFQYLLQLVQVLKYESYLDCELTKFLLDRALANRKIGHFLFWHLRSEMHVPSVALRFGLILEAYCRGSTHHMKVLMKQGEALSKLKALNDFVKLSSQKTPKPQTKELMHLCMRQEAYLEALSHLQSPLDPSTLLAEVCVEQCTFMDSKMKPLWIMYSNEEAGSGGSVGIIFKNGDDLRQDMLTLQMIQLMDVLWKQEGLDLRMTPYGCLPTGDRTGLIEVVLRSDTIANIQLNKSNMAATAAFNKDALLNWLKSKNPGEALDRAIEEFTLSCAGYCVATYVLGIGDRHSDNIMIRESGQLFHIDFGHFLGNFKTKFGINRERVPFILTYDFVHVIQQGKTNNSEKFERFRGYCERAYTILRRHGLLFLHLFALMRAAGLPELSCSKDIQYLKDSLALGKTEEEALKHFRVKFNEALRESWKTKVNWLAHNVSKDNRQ

SMILES	IC50 (PIK3CA)	IC80 (PIK3CB)	IC50 (PIK3CD)	IC50 (PIK3CG)	IC50 (PIK3CB)
CC(=O)c1ccc(N2CCOCC2)cc1O	16 µM	0.99 µM	3.8 µM	10 µM	–
Cc1cc(Nc2ccc(C)c(C)c2)c2nc(N3CCOCC3)cc(=O)n2c1	10 µM	–	5 µM	> 100 µM	14 µM
Cc1cc(Nc2cccc(C)c2C)c2nc(N3CCOCC3)cc(=O)n2c1	6.2 µM	–	3.3 µM	100 µM	3.5 µM
Cc1ccccc1Oc1cccc2c(=O)cc(N3CCOCC3)[nH]c12	61 µM	–	0.63 µM	100 µM	0.13 µM
Cc1cc(NCc2ccccc2)c2nc(N3CCOCC3)cc(=O)n2c1	8.1 µM	–	0.15 µM	10 µM	0.16 µM
O=C(c1ccccc1)c1ccc(N2CCOCC2)cc1O	–	–	–	–	3.7 µM
Cc1cc(NCc2ccccc2C)c2nc(N3CCOCC3)cc(=O)n2c1	–	–	–	–	0.11 µM
COc1ccccc1Nc1cc(C)cn2c(=O)cc(N3CCOCC3)nc12	50 µM	–	10 µM	> 100 µM	20 µM
Cc1cc(Br)c2nc(N3CCOCC3)cc(=O)n2c1	58 µM	–	8.5 µM	> 100 µM	9.9 µM
Cc1cc(Nc2ccccc2C)c2nc(N3CCOCC3)cc(=O)n2c1	9 µM	–	3.8 µM	> 100 µM	3.3 µM
O=Cc1ccc(N2CCOCC2)cc1O	–	–	–	–	2.8 µM
O=c1cc(N2CCOCC2)oc2c(-c3ccccc3)cccc12	–	–	6 µM	–	–
Nc1cc(N2CCOCC2)ccc1[N+](=O)[O-]	100 µM	–	24 µM	100 µM	23 µM
O=c1cc(N2CCOCC2)oc2ccccc12	45 µM	–	13 µM	100 µM	7.5 µM
Cc1cccc(CNc2cc(C)cn3c(=O)cc(N4CCOCC4)nc23)c1	1.8 µM	–	0.39 µM	25 µM	0.99 µM
O=C(CCl)c1ccc(N2CCOCC2)cc1O	30 µM	–	4.8 µM	70 µM	–
Cc1cc(-c2cccc(N)c2)c2nc(N3CCOCC3)cc(=O)n2c1	14 µM	–	6.9 µM	38 µM	18 µM
